Experimental data: the supplement of paper PMC10307832

Experiments:
Assay in all cases: relative viability (nuclei count vs DMSO), 5 days (fraction); higher = more cells survive
Quizartinib + Lapatinib = compound: CC(C)(C)c1cc(NC(=O)Nc2ccc(-c3cn4c(n3)sc3cc(OCCN5CCOCC5)ccc34)cc2)no1 [Quizartinib] + CS(=O)(=O)CCNCc1ccc(-c2ccc3ncnc(Nc4ccc(OCc5cccc(F)c5)c(Cl)c4)c3c2)o1 [Lapatinib] (partner 2 µM)
How it was run: (§1)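 Lung cancer cell lines in 1536-well plates were dosed by pin tool the day after seeding, either with one drug alone or with a fixed anchor-drug dose plus five library-drug doses (not always all listed) in √10 steps. After 5 days, cells were fixed and their nuclei stained in one step (final 0.05% Triton X-100, 1% formaldehyde, 1 ug/ml Hoechst), then counted on 4× images. Relative viability is the nuclei count in treated wells divided by that in vehicle wells. Values are medians of duplicate plates.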

YM155 + Alpelisib = compound: COCC[n+]1c2c(n(Cc3cnccn3)c1C)C(=O)c1ccccc1C2=O [YM155] + Cc1nc(NC(=O)N2CCC[C@H]2C(N)=O)sc1-c1ccnc(C(C)(C)C(F)(F)F)c1 [Alpelisib] (partner 2 µM)
How it was run: as §1

Quizartinib + Pictilisib = compound: CC(C)(C)c1cc(NC(=O)Nc2ccc(-c3cn4c(n3)sc3cc(OCCN5CCOCC5)ccc34)cc2)no1 [Quizartinib] + CS(=O)(=O)N1CCN(Cc2cc3nc(-c4cccc5[nH]ncc45)nc(N4CCOCC4)c3s2)CC1 [Pictilisib] (partner 1 µM)
How it was run: as §1

YM155 + Lapatinib = compound: COCC[n+]1c2c(n(Cc3cnccn3)c1C)C(=O)c1ccccc1C2=O [YM155] + CS(=O)(=O)CCNCc1ccc(-c2ccc3ncnc(Nc4ccc(OCc5cccc(F)c5)c(Cl)c4)c3c2)o1 [Lapatinib] (partner 2 µM)
How it was run: as §1

Row | Cell Line | relative viability (Quizartinib + Lapatinib; first compound 0.001 µM) | relative viability (Quizartinib + Lapatinib; first compound 0.003162 µM) | relative viability (Quizartinib + Lapatinib; first compound 0.01 µM) | relative viability (Quizartinib + Lapatinib; first compound 0.03162 µM) | relative viability (Quizartinib + Lapatinib; first compound 0.1 µM) | relative viability (YM155 + Alpelisib; first compound 0.002 µM) | relative viability (YM155 + Alpelisib; first compound 0.006325 µM) | relative viability (YM155 + Alpelisib; first compound 0.02 µM) | relative viability (YM155 + Alpelisib; first compound 0.06325 µM) | relative viability (Quizartinib + Pictilisib; first compound 0.001 µM) | relative viability (Quizartinib + Pictilisib; first compound 0.003162 µM) | relative viability (Quizartinib + Pictilisib; first compound 0.01 µM) | relative viability (Quizartinib + Pictilisib; first compound 0.03162 µM) | relative viability (Quizartinib + Pictilisib; first compound 0.1 µM) | relative viability (YM155 + Lapatinib; first compound 0.002 µM) | relative viability (YM155 + Lapatinib; first compound 0.006325 µM) | relative viability (YM155 + Lapatinib; first compound 0.02 µM) | relative viability (YM155 + Lapatinib; first compound 0.06325 µM)
1 | NCI-H2087 | 0.665 | 0.906 | 1 | 1.09 | 0.935 | 0.903 | 1.06 | 1.03 | 0.822 | 0.393 | 0.867 | 0.916 | 0.665 | 0.81 | 1.26 | 1.01 | 1.12 | 0.708
2 | NCI-H2126 | 0.704 | 0.705 | 0.744 | 0.801 | 0.863 | 0.754 | 0.76 | 0.77 | 0.802 | 0.473 | 0.504 | 0.462 | 0.519 | 0.541 | 0.768 | 0.788 | 0.726 | 0.783
3 | NCI-H2170 | 0.257 | 0.273 | 0.253 | 0.262 | 0.272 | 0.866 | 0.855 | 0.889 | 0.877 | 0.388 | 0.327 | 0.308 | 0.42 | 0.321 | 0.261 | 0.261 | 0.291 | 0.235
4 | NCI-H2228 | 1.11 | 1.1 | 1.47 | 0.764 | 1 | 0.764 | 0.782 | 0.645 | 0.657 | 0.364 | 0.312 | 0.456 | 0.386 | 0.464 | 0.856 | 1.16 | 0.988 | 0.998
5 | NCI-H2347 | 0.604 | 0.923 | 0.94 | 1.03 | 1.1 | 1.01 | 0.896 | 0.987 | 0.67 | 0.628 | 0.958 | 0.793 | 0.633 | 0.783 | 0.917 | 0.914 | 0.997 | 0.598
6 | NCI-H2405 | 1.11 | 1.16 | 0.969 | 0.934 | 1.3 | 0.826 | 0.593 | 0.826 | 0.345 | 0.614 | 0.442 | 0.327 | 0.44 | 0.503 | 1.03 | 0.816 | 0.786 | 0.34
7 | NCI-H3122 | 1.08 | 0.903 | 1.04 | 1.05 | 1.04 | 0.67 | 0.665 | 0.751 | 0.82 | 0.625 | 0.534 | 0.608 | 0.626 | 0.58 | 1 | 0.997 | 1.01 | 1.08
8 | PC-3 [JPC-3] | 0.416 | 0.472 | 0.471 | 0.481 | 0.415 | 1.02 | 1.02 | 1.07 | 0.972 | 0.656 | 0.794 | 0.834 | 0.733 | 0.73 | 0.455 | 0.455 | 0.437 | 0.455
9 | PC-14 | 0.271 | 0.322 | 0.306 | 0.333 | 0.337 | 1 | 1.02 | 0.953 | 0.811 | 0.634 | 0.633 | 0.752 | 0.576 | 0.681 | 0.306 | 0.295 | 0.297 | 0.355
10 | RERF-LC-KJ | 0.883 | 0.766 | 0.864 | 0.864 | 0.777 | 0.806 | 0.705 | 0.771 | 0.842 | 0.468 | 0.586 | 0.735 | 0.538 | 0.515 | 0.755 | 0.853 | 0.88 | 0.821
11 | SK-LU-1 | 0.704 | 0.867 | 1.3 | 0.774 | 0.725 | 1.03 | 1.09 | 1.07 | 1.01 | 0.545 | 0.547 | 0.606 | 0.491 | 0.588 | 0.835 | 0.85 | 0.971 | 0.653
12 | SK-MES-1 | 0.464 | 0.428 | 0.421 | 0.428 | 0.442 | 0.823 | 0.905 | 1.05 | 0.715 | 0.244 | 0.329 | 0.391 | 0.363 | 0.365 | 0.468 | 0.476 | 0.442 | 0.473
13 | SW 1573 | 1.03 | 1.09 | 1.24 | 1.01 | 1.21 | 0.73 | 0.657 | 0.875 | 0.723 | 0.474 | 0.432 | 0.516 | 0.325 | 0.475 | 1.1 | 1.01 | 1.21 | 0.858
14 | UMC-11 | 0.499 | 0.945 | 1.14 | 0.889 | 1.02 | 1.03 | 1.06 | 1 | 1.08 | 0.522 | 0.779 | 0.836 | 0.742 | 0.885 | 0.846 | 0.964 | 0.994 | 0.93
